These results are taken from patent US10562887B2, “Triazolones and tetrazolones as inhibitors of ROCK” (BRISTOL-MYERS SQUIBB COMPANY, priority 2016, dated 2020).

Molecules are shown by their SMILES. Like-named read-outs stand apart in the source and are kept apart here.

As a reminder, the IC50 is the concentration that inhibits the measured activity by half. Low values mean greater potency, high ones weaker potency.

For assay [1], the target named is ROCK2 (Homo sapiens (Human), UniProt O75116). Kind of assay: ROCK2 assay (peptide phosphorylation, LABCHIP 3000 Reader). The format is biochemical. The conditions noted are these: 5 μM ATP, 1.5 μM peptide substrate. The method in brief:
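Human ROCK2 reaction in 20 mM HEPES pH 7.5, 20 mM MgCl2, 0.015% Brij-35, 4 mM DTT, with 5 μM ATP and 1.5 μM FITC-labelled peptide, DMSO <2%. Stopped with EDTA; phosphorylated and unphosphorylated peptide separated by microfluidic mobility shift. IC50 from dose-response curve fit.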

For assay [2], the system named is congestive heart failure in Dahl salt-sensitive rats. The conditions noted are these: cited from earlier work.
The subject of assay [3] is spontaneously hypertensive rat, renal hypertensive rat and deoxycortisone acetate salt hypertensive rat models. The conditions noted are these: cited from earlier work.
Assay [4] deals with neointimal formation. The conditions noted are these: rats; cited from earlier work.
The test system of assay [5] is IL-1 beta-induced coronary stenosis. The conditions noted are these: long term treatment, porcine model; cited from earlier work.
The test system of assay [6] is rat stroke model. The conditions noted are these: cited from earlier work.

Sequence of ROCK2 (O75116 whole entry, species assumed): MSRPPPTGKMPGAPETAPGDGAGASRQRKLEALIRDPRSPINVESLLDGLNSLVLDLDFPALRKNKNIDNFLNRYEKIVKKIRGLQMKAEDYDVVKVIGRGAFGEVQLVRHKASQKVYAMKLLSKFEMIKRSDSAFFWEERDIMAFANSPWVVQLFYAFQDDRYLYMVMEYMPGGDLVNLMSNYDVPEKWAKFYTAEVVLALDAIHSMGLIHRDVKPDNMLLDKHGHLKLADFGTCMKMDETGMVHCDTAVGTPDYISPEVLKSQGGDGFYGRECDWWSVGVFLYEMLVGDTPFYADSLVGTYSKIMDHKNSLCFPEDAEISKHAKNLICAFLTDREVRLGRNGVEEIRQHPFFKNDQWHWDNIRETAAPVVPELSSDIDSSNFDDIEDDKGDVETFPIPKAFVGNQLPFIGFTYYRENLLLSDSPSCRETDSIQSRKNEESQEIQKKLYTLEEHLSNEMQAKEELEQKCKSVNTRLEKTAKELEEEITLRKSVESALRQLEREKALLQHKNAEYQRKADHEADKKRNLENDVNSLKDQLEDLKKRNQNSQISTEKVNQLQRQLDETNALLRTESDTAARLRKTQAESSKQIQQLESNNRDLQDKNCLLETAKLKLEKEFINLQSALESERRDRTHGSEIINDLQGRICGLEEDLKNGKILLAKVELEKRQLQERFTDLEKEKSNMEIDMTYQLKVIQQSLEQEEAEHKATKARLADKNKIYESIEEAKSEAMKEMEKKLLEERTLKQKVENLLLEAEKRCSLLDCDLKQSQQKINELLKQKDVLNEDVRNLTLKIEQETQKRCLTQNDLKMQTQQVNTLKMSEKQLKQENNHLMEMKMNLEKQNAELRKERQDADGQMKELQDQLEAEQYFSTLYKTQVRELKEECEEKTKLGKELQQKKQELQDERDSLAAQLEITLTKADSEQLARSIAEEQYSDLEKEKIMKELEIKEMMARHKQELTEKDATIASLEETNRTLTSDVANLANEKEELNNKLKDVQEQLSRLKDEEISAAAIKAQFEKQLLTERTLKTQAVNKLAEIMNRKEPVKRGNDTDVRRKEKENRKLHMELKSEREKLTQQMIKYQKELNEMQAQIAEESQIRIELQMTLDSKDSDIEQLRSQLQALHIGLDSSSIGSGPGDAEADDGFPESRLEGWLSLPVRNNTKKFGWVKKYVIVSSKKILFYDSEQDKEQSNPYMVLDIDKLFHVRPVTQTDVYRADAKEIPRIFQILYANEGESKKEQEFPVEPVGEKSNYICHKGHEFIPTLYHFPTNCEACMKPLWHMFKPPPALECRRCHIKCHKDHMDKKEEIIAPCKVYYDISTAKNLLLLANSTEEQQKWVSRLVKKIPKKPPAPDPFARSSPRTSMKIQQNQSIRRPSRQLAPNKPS

As to `COc1cc(-n2nnn(Cc3ccccc3F)c2=O)ccc1-c1cn[nH]c1` [Example 183, 1-(2-fluorobenzyl)-4-(3-methoxy-4-(1H-pyrazol-4-yl)phenyl)-1H-tetrazol-5(4H)-one], the IC50 in assay [1] was in the range of 50 to 250 nM.

For `COc1cc(-n2nnn(Cc3c(F)cccc3F)c2=O)ccc1-c1cn[nH]c1` [Example 184, 1-(2,6-difluorobenzyl)-4-(3-methoxy-4-(1H-pyrazol-4-yl)phenyl)-1H-tetrazol-5(4H)-one], the IC50 in assay [1] is 50 to 250 nM.

The compound `COc1cc(-n2nnn(Cc3cccc(C#N)c3)c2=O)ccc1-c1cn[nH]c1` [Example 185, 3-((4-(3-methoxy-4-(1H-pyrazol-4-yl)phenyl)-5-oxo-4,5-dihydro-1H-tetrazol-1-yl)methyl)benzonitrile] displayed an IC50 in assay [1] of 250 to 2000 nM.

`COc1cc(-n2nnn(Cc3ccc(F)cc3)c2=O)ccc1-c1cn[nH]c1` [Example 186, 1-(4-fluorobenzyl)-4-(3-methoxy-4-(1H-pyrazol-4-yl)phenyl)-1H-tetrazol-5(4H)-one] displayed an IC50 in assay [1] of 250 to 2000 nM.

In the case of `COc1cccc(Cn2nnn(-c3ccc(-c4cn[nH]c4)c(OC)c3)c2=O)c1` [Example 187, 1-(3-methoxy-4-(1H-pyrazol-4-yl)phenyl)-4-(3-methoxybenzyl)-1H-tetrazol-5(4H)-one], the IC50 in assay [1] is 5 to 50 nM.

For `C[C@@H](N)[C@H]1CC[C@H](C(=O)Nc2ccncc2)CC1` [Example Y-27632, Y-27632], in assay [2], the “ventricular hypertrophy, fibrosis and function” value is reported as “improve”. Also, the blood pressure result was “only a minor effect” in assay [3] (control rats) and “significantly decrease blood pressure” in assay [3] (three rat models of hypertension). For the same compound, in assay [4], the neointimal formation entry is “inhibited neointimal formation”.

With `O=S(=O)(c1cccc2cnccc12)N1CCCNCC1` [fasudil], in assay [5], the coronary constrictive remodeling result is given as “promote a regression” and the coronary stenosis entry is “progressively reduce coronary stenosis”. Moreover, the “infarct size and neurologic deficit” value in assay [6] is “reduce both the infarct size and neurologic deficit”.
